Test results published in patent publication US10406129B2 (priority 2015, dated 2019).
“Also recorded” adds a separate entry of the source. Where two headings read alike, the source gives them in different places.

Assays:
platelets [1] = experiment: Platelet function by whole blood/optical lumi-aggregometer after intake; format: in vivo, human
Experimental: Platelet reactivity during clinical screening was assessed by a PFA-100 (Siemens, Deerfield, Ill.), which measures platelet function by simulating arterial hemostasis under blood flow shear stress. During the intervention, platelet function was assessed by a whole blood/optical lumi-aggregometer (Chrono-log Model 700, Havertown, Pa.). Briefly, platelet aggregation was measured via electrical impedence (or electrical resistance), whereas lumi-aggregometry was used to examine aggregation together with adenosine triphosphate (hereafter, “ATP”) release, which is determined with firefly luciferin-luciferase system. […] One of the following agonists was used to stimulate platelets: collagen (1 μL and 5 μL), AA (10 μL) or ADP (10 μL). ATP release was measured only when platelets were activated with ADP. The aggregation was measured over a period of six minutes, following the addition of an agonist.

[2] = Plasma resveratrol concentrations after intake (HPLC), one hour study; format: in vivo, human; details: median (interquartile range), n=30
Experimental: Participants were randomized by block design to consumed trans-res or ResArgin™ in random order. Randomization was performed by the study coordinator following a predetermined plan formulated via a web-based random number generator. […] The study included two separate investigations: a one hour study and a two hour study (FIG. 6). During each study visit, which took place after an overnight fast, a baseline measurement of PAT and a blood sample were collected, followed by consumption of the assigned treatment. During the one hour study, PAT measurements and blood samples were collected thirty and […] minutes after the capsules were consumed. During the two hour study, a PAT measurement and blood sample were taken two hours after the capsules were consumed.
Briefly, plasma was treated with acidified methanol [0.5% (v/v) of acetic acid in methanol; precooled to −20° C.] containing an appropriate recovery standard. The mixture was stored at −80 C for 12 hours to allow for cryo-assisted protein precipitation, and then centrifuged for 15 min at 16,500×g. The supernatant fraction was transferred and its volume reduced to less than 50 μL by removing the solvents under vacuum with a […] SpeedVac Concentrator (Thermo Electron Corporation, Milford, Mass.). […]

postmenopausal women = experiment: Microvascular function by peripheral arterial tonometry (Endo-PAT2000) after intake of 90 mg ResArgin or trans-res; format: in vivo, human; details: combined data
platelets [3] = details: 10 mg daily for three months; stable coronary artery disease patients; cited from earlier work
platelets [4] = details: in vitro; 10-1,000 μM; dose dependent; cited from earlier work
[5] = test system: endothelial nitric oxide synthase (eNOS); details: 1 μM; human umbilical vein endothelial cells; cited from earlier work
platelets [6] = details: 4 mg/kg/day; hypercholesterolemic rat model; cited from earlier work
[7] = platelets stimulated with 10 μL arachidonic acid, one hour after intake

Structure (SMILES)	Slope, change from baseline (platelets [1]; lumi-aggregometry with 10 μL ADP, one-hour post consumption)	Slope, change from baseline (platelets [1]; platelets stimulated with 1 μL collagen, one hour after consumption)	Lag time, change from baseline (platelets [1]; platelets stimulated with 1 μL collagen, one-hour post consumption)	Area under the curve (AUC) of aggregation, change from baseline (platelets [1]; [7])	Maximum aggregation, change from baseline (platelets [1]; [7])	Platelet function, change from baseline (platelets [1]; stimulation with 5 μL collagen)	Plasma resveratrol concentration ([2]; 30 minutes after intake of 90 mg)	Plasma resveratrol concentration ([2]; 60 minutes after intake of 90 mg)	Change in FRHI compared to baseline (postmenopausal women; one and two hours post-consumption)	Significant improvement in RHI compared to baseline (postmenopausal women; one hour after intake)	Platelet aggregation (platelets [3])	Platelet aggregation (platelets [4])	Expression of eNOS [5]	ADP-induced platelet aggregation (platelets [6])
Oc1ccc(/C=C/c2cc(O)cc(O)c2)cc1 [trans-res, Trans-resveratrol]	significant decrease	not	significant increase	no changes	no changes	no significant changes	2.04 (0.82, 2.54)	2.65 (1.69, 3.44)	No differences; also recorded: no changes	not observed	significantly reduced	significantly reduced	up-regulated	
Oc1ccc(C=Cc2cc(O)cc(O)c2)cc1 [Resveratrol, 3,5,4′-trihydroxystilbene]														inhibited
